From patent publication US20260373164A1, “4(RS)-4-F4-NEUROPROSTANE DERIVATIVES (4-F4T-NEUROP) AND THEIR USE IN TREATING VENTILATOR INDUCED DIAPHRAGMATIC DYSFUNCTION AND OTHER DISEASES” (INSTITUT NATIONAL DE LA SANTÉ ET DE LA RECHERCHE MÉDICALE, priority 2022, published 2026)

System: ventricular cardiomyocytes derived from DMD hIPSc (RyR2)
Assay: Diastolic level of calcium in ventricular cardiomyocytes derived from DMD hIPSc (indo-1)
Assay type: cell-based, human
Experimental: FIG. 6: Effect of Hexanor on the diastolic level of Calcium in ventricular cardiomyocytes derived from DMD and control hIPSc. The cardiomyocytes were loaded with indo-1 to assess in a ratiometric manner the intracellular level of calcium. […] A. The level of calcium is higher in DMD compared to control cells. This is prevented by hexanor (1 μM).
The inventors then tested the impact of VB558 on the diastolic level of Calcium in ventricular cardiomyocytes derived from Duchenne muscular dystrophy (DMD).

## CC/C=C\C[C@@H]1[C@H](/C=C/C(O)CCC(=O)O)[C@@H](O)C[C@H]1O (mixture of isomers) [VB558, (E)-6-((1S,2R,3R,5S)-3,5-dihydroxy-2-((Z)-pent-2-en-1-yl)cyclopentyl)-4-hydroxyhex-5-enoic Acid]
1 μM, without isoproterenol, DMD hIPSc cardiomyocytes
  diastolic level of calcium: prevented
DMD-derived ventricular cardiomyocytes
  RyR2 dysfunction in DMD: may be prevented
hexanor, Iso 1 μM, DMD hIPSc cardiomyocytes
  resting calcium under isoproterenol stimulation: full normalization of the resting calcium
